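Cultured in 96-well plates, cells were exposed to test compound for 48 hours across five concentrations. At the TGI there is no net growth.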
What was measured:
Test in all cases: DTP human tumour cell line panel, 48 h
SF-539 CNS = system: SF-539 CNS
KM12 colon = system: KM12 colon
COLO 205 colon = system: COLO 205 colon
HCT-116 colon = system: HCT-116 colon
HT29 colon = system: HT29 colon
NCI-H23 lung = system: NCI-H23 lung
SK-MEL-28 melanoma = system: SK-MEL-28 melanoma
SF-295 CNS = system: SF-295 CNS
SNB-78 CNS = system: SNB-78 CNS
M14 melanoma = system: M14 melanoma
U251 CNS = system: U251 CNS
CCRF-CEM leukemia = system: CCRF-CEM leukemia
IGROV1 ovarian = system: IGROV1 ovarian
NCI-H460 lung = system: NCI-H460 lung
XF 498 CNS = system: XF 498 CNS
A498 renal = system: A498 renal
HOP-18 NSCLC = system: HOP-18 NSCLC
SK-OV-3 ovarian = system: SK-OV-3 ovarian
LXFL 529 NSCLC = system: LXFL 529 NSCLC
DMS 114 small cell lung = system: DMS 114 small cell lung
EKVX NSCLC = system: EKVX NSCLC
MALME-3M melanoma = system: MALME-3M melanoma
SK-MEL-2 melanoma = system: SK-MEL-2 melanoma
HCC-2998 colon = system: HCC-2998 colon
SNB-75 CNS = system: SNB-75 CNS
UO-31 renal = system: UO-31 renal
A549 NSCLC = system: A549 NSCLC
OVCAR-8 ovarian = system: OVCAR-8 ovarian
TK-10 renal = system: TK-10 renal
OVCAR-3 ovarian = system: OVCAR-3 ovarian
SN12C renal = system: SN12C renal
ACHN renal = system: ACHN renal
SK-MEL-5 melanoma = system: SK-MEL-5 melanoma
K-562 leukemia = system: K-562 leukemia
SF-268 CNS = system: SF-268 CNS
UACC-257 melanoma = system: UACC-257 melanoma
RPMI-8226 leukemia = system: RPMI-8226 leukemia
DLD-1 colon = system: DLD-1 colon
M19-MEL melanoma = system: M19-MEL melanoma
MOLT-4 leukemia = system: MOLT-4 leukemia
HOP-92 NSCLC = system: HOP-92 NSCLC
HCT-15 colon = system: HCT-15 colon
HL-60(TB) leukemia = system: HL-60(TB) leukemia
OVCAR-4 ovarian = system: OVCAR-4 ovarian
786-0 renal = system: 786-0 renal
DMS 273 small cell lung = system: DMS 273 small cell lung
OVCAR-5 ovarian = system: OVCAR-5 ovarian
UACC-62 melanoma = system: UACC-62 melanoma
RXF-631 renal = system: RXF-631 renal
SNB-19 CNS = system: SNB-19 CNS
NCI-H226 lung = system: NCI-H226 lung
SW-620 colon = system: SW-620 colon
KM20L2 colon = system: KM20L2 colon
CAKI-1 renal = system: CAKI-1 renal
HOP-62 NSCLC = system: HOP-62 NSCLC
NCI-H522 lung = system: NCI-H522 lung
LOX IMVI melanoma = system: LOX IMVI melanoma
RXF 393 renal = system: RXF 393 renal
SR leukemia = system: SR leukemia

CC1(O)CC2C(CC1SCCO)C2(C)C (stereo not given)
TGI (SF-539 CNS): > 100 µM
TGI (KM12 colon): > 100 µM
TGI (COLO 205 colon): > 100 µM
TGI (HCT-116 colon): > 100 µM
TGI (HT29 colon): > 100 µM
TGI (NCI-H23 lung): > 100 µM
TGI (SK-MEL-28 melanoma): > 100 µM
TGI (SF-295 CNS): > 100 µM
TGI (SNB-78 CNS): > 100 µM
TGI (M14 melanoma): > 100 µM
TGI (U251 CNS): > 100 µM
TGI (CCRF-CEM leukemia): > 100 µM
TGI (IGROV1 ovarian): > 100 µM
TGI (NCI-H460 lung): > 100 µM
TGI (XF 498 CNS): > 100 µM
TGI (A498 renal): > 100 µM
TGI (HOP-18 NSCLC): > 100 µM
TGI (SK-OV-3 ovarian): > 100 µM
TGI (LXFL 529 NSCLC): > 100 µM
TGI (DMS 114 small cell lung): > 100 µM
TGI (EKVX NSCLC): > 100 µM
TGI (MALME-3M melanoma): > 100 µM
TGI (SK-MEL-2 melanoma): > 100 µM
TGI (HCC-2998 colon): > 100 µM
TGI (SNB-75 CNS): > 100 µM
TGI (UO-31 renal): > 100 µM
TGI (A549 NSCLC): > 100 µM
TGI (OVCAR-8 ovarian): > 100 µM
TGI (TK-10 renal): > 100 µM
TGI (OVCAR-3 ovarian): > 100 µM
TGI (SN12C renal): > 100 µM
TGI (ACHN renal): > 100 µM
TGI (SK-MEL-5 melanoma): > 100 µM
TGI (K-562 leukemia): > 100 µM
TGI (SF-268 CNS): > 100 µM
TGI (UACC-257 melanoma): > 100 µM
TGI (RPMI-8226 leukemia): > 100 µM
TGI (DLD-1 colon): > 100 µM
TGI (M19-MEL melanoma): > 100 µM
TGI (MOLT-4 leukemia): > 100 µM
TGI (HOP-92 NSCLC): > 100 µM
TGI (HCT-15 colon): > 100 µM
TGI (HL-60(TB) leukemia): > 100 µM
TGI (OVCAR-4 ovarian): > 100 µM
TGI (786-0 renal): > 100 µM
TGI (DMS 273 small cell lung): > 100 µM
TGI (OVCAR-5 ovarian): > 100 µM

Cc1c(C(=O)/C=C/c2ccc(Cl)cc2)[n+](=O)c2ccccc2n1[O-]
TGI (SF-539 CNS): 25.7 µM
TGI (KM12 colon): 22.7 µM
TGI (UACC-62 melanoma): 26.8 µM
TGI (RXF-631 renal): > 100 µM
TGI (SNB-19 CNS): 27.8 µM
TGI (COLO 205 colon): 27.1 µM
TGI (HCT-116 colon): 18.5 µM
TGI (HT29 colon): 28.2 µM
TGI (NCI-H226 lung): 33.7 µM
TGI (NCI-H23 lung): 22.2 µM
TGI (SK-MEL-28 melanoma): 32.6 µM
TGI (SF-295 CNS): 27.1 µM
TGI (SNB-78 CNS): > 100 µM
TGI (M14 melanoma): 31.5 µM
TGI (SW-620 colon): 21.9 µM
TGI (U251 CNS): 26.3 µM
TGI (CCRF-CEM leukemia): > 100 µM
TGI (IGROV1 ovarian): 39.4 µM
TGI (NCI-H460 lung): 29.1 µM
TGI (A498 renal): 29.2 µM
TGI (HOP-18 NSCLC): 57.7 µM
TGI (SK-OV-3 ovarian): 47.6 µM
TGI (LXFL 529 NSCLC): 22.5 µM
TGI (DMS 114 small cell lung): 15.1 µM
TGI (KM20L2 colon): 21.4 µM
TGI (EKVX NSCLC): 31.2 µM
TGI (MALME-3M melanoma): 38.1 µM
TGI (HCC-2998 colon): 24.5 µM
TGI (SNB-75 CNS): 40.7 µM
TGI (UO-31 renal): 29.9 µM
TGI (CAKI-1 renal): 31.6 µM
TGI (A549 NSCLC): 33.6 µM
TGI (OVCAR-8 ovarian): 23.3 µM
TGI (TK-10 renal): 35.5 µM
TGI (OVCAR-3 ovarian): 27.4 µM
TGI (SN12C renal): 23.3 µM
TGI (ACHN renal): 29.6 µM
TGI (HOP-62 NSCLC): 63.5 µM
TGI (K-562 leukemia): 52.9 µM
TGI (NCI-H522 lung): 17 µM
TGI (SF-268 CNS): 28.6 µM
TGI (UACC-257 melanoma): 30.4 µM
TGI (RPMI-8226 leukemia): 42.4 µM
TGI (DLD-1 colon): 20.4 µM
TGI (M19-MEL melanoma): 30 µM
TGI (MOLT-4 leukemia): 45.6 µM
TGI (HOP-92 NSCLC): 37.7 µM
TGI (HCT-15 colon): 24.1 µM
TGI (HL-60(TB) leukemia): 35.2 µM
TGI (LOX IMVI melanoma): 20.5 µM
TGI (OVCAR-4 ovarian): 28.3 µM
TGI (786-0 renal): 27.4 µM
TGI (RXF 393 renal): 17.9 µM
TGI (DMS 273 small cell lung): 25.4 µM
TGI (OVCAR-5 ovarian): 28.3 µM
TGI (SR leukemia): 73.1 µM

Cc1cc(NS(=O)(=O)c2ccc(NC(=O)c3cccc4c(N)c5ccccc5nc34)cc2)no1
TGI (SF-539 CNS): 47.6 µM
TGI (KM12 colon): 58.3 µM
TGI (UACC-62 melanoma): 57.7 µM
TGI (RXF-631 renal): 38.7 µM
TGI (SNB-19 CNS): 34 µM
TGI (COLO 205 colon): 53.6 µM
TGI (HCT-116 colon): 27.6 µM
TGI (HT29 colon): 80.8 µM
TGI (NCI-H226 lung): 33.4 µM
TGI (NCI-H23 lung): 52.2 µM
TGI (SK-MEL-28 melanoma): 44.2 µM
TGI (SF-295 CNS): 67.2 µM
TGI (SNB-78 CNS): 71.1 µM
TGI (M14 melanoma): 54 µM
TGI (SW-620 colon): 94.2 µM
TGI (U251 CNS): 78.2 µM
TGI (CCRF-CEM leukemia): 66.5 µM
TGI (IGROV1 ovarian): 59.3 µM
TGI (NCI-H460 lung): > 100 µM
TGI (XF 498 CNS): 55.5 µM
TGI (A498 renal): 52 µM
TGI (SK-OV-3 ovarian): 75.5 µM
TGI (LXFL 529 NSCLC): > 100 µM
TGI (DMS 114 small cell lung): 45.6 µM
TGI (KM20L2 colon): > 100 µM
TGI (EKVX NSCLC): > 100 µM
TGI (MALME-3M melanoma): 77.4 µM
TGI (SK-MEL-2 melanoma): 37.2 µM
TGI (SNB-75 CNS): > 100 µM
TGI (UO-31 renal): 95.7 µM
TGI (CAKI-1 renal): 80.4 µM
TGI (A549 NSCLC): > 100 µM
TGI (OVCAR-8 ovarian): 59.4 µM
TGI (TK-10 renal): > 100 µM
TGI (OVCAR-3 ovarian): 52.8 µM
TGI (SN12C renal): 40.3 µM
TGI (ACHN renal): 46.6 µM
TGI (HOP-62 NSCLC): 86.9 µM
TGI (K-562 leukemia): > 100 µM
TGI (NCI-H522 lung): 33.9 µM
TGI (SF-268 CNS): 76.9 µM
TGI (RPMI-8226 leukemia): 62.6 µM
TGI (DLD-1 colon): > 100 µM
TGI (M19-MEL melanoma): 42.1 µM
TGI (MOLT-4 leukemia): > 100 µM
TGI (HCT-15 colon): > 100 µM
TGI (LOX IMVI melanoma): 65.8 µM
TGI (OVCAR-4 ovarian): 70.5 µM
TGI (786-0 renal): 33.7 µM
TGI (RXF 393 renal): 31.9 µM
TGI (DMS 273 small cell lung): 49 µM
TGI (OVCAR-5 ovarian): > 100 µM

From PubChem BioAssay (NCI)
